Data reported in patent US5443967A, “DNA encoding the cancer associated SCM recognition factor” (priority 1993, dated 1995).
Entries after “also recorded” stand apart in the source; their conditions may differ. *1 amine or outer side, *2 acyl side, *3 side chain or, on linkers, in order; H or OH if unused. Where a SMILES comes first, the peptide text is derived from it. Bridges are numbered along the chain shown (N, C = ends). Roman numbers before positions name the chains, in order. Where no end group is shown, it is not given here. [ ]: non-standard residue; d: D form. Actinocin(9to1) = Cc1c2oc3c(C)ccc(C(=O)[*:1])c3nc-2c(C(=O)[*:2])c(N)c1=O; NMeV = CN[C@H](C(=O)O)C(C)C; Sar = CNCC(=O)O

Experiments:
[1] = tested on: SCM-responding lymphocytes from healthy donors; experiment: Modification/induction of SCM response of lymphocytes from healthy donors by preincubation with SCM factor; type: cell-based, human; settings: 10 μg/5×10^6 cells during incubation with synthetic SCM factor
Protocol: 10, 1986, and entitled "Automated Collection of Buoyant Density Specific Cells from Density Gradients." Aliquots of these cells were incubated in 3 ml of the following: (a) cell-free blood plasma from cancer patients; (b) plasma from cancer patients ultrafiltered for 12 hours through an Amicon™ UM2 filter with a molecular weight cutoff of 1000 daltons; (c) plasma from cancer patients ultrafiltered for 12 hours through an Amicon™ UM5 filter with a nominal molecular weight cutoff of 500 daltons; (d) general cancer-associated SCM factor as purified through the desalting or Sephadex G-10 column stage; (e) the factor as purified through the Sephadex G-50 column stage; (f) the factor as purified through the DEAE-cellulose column step; (g) the factor as finally purified through the RP-HPLC step; and (h) plasma from healthy donors ultrafiltered through an Amicon™ UM2 filter with a nominal molecular weight cutoff of 1000 daltons. […]
Before being contacted with either a mitogen or with the SCM factor for determination of the RRSCM the incubated cells were thoroughly washed. The presence or absence of modification was determined by the ratio of the polarization value of the lymphocyte suspension after a short contact period with substrates containing the SCM factor over the polarization value of the lymphocyte suspension after a short contact period with phytohaemagglutinin (PHA). […]

MCF7 breast cancer cells = experiment: SCM factor in cultured cancer cells by noncompetitive ELISA; type: cell-based, human
Protocol: (§1) The SCM factors secreted from human cancer cells in culture whose amino acid sequences were presented in Example 24 also reacted with the anti-SCM antibody of Example 20. A variation on the ELISA assay of Example 21 was used. In this version of the ELISA assay, the assay was performed directly on the eluate from the RP-HPLC purification step that remained adsorbed to the Eppendorf™ collection tubes after loading of the bulk of the eluates onto the sequenator disk. No other SCM factor was added, and there was no additional sample added to the assay. This version of the SCM ELISA assay is noncompetitive; the larger is the quantity of SCM factor adsorbed to the Eppendorf™ tubes, the higher is the measured A405. The results, shown in Table 15, clearly indicate the presence of material able to react with anti-SCM antibody in these fractions.
(§2) Human cancer cells in culture were directly shown to contain SCM-factor molecules by antibody reactivity. Washed cells from monolayered cultures of several human cancer cells: MCF7 breast cancer cells; T1080 fibrosarcoma cells; A2780 ovarian cancer cells; and HCT80 colon cancer cells, were assayed directly by the noncompetitive ELISA assay procedure of Example 25.
As shown in Table 17 of Example 26, treatment of human cultured cancer cells with cycloheximide, an inhibitor of protein synthesis, decreases the amount of SCM factor produced by these cells. […] The amounts of SCM factor per 7×10^6 cells in the presence or absence of 10^-3 molar ascorbic acid after a 16-hour incubation were measured by the noncompetitive ELISA procedure of Example 25. The aliquot of cancer cells incubated in the presence of ascorbate ions produced 43.9% less SCM factor than untreated control cells.

T1080 fibrosarcoma cells = experiment: as above; type: cell-based, human
Protocol: as §1, §2

[2] = tested on: SCM-responding lymphocytes; settings: from prior applications Ser. No. 07/167,007 and 07/163,250; cited from earlier work
[3] = tested on: K 562 human myeloid cell line; experiment: Natural lymphocyte cytotoxicity against K 562 cells (51Cr release); type: cell-based; settings: for Percent Cytotoxicity: PBL, 35 femtomoles, 2.5 hours 37° C., 40:1; for Percent Cytotoxicity: Treated & Washed Lymphocytes: 35 femtomoles per lymphocyte, effector/target 40:1
Protocol: Aliquots of these lymphocytes were also retained as controls and not incubated. In addition, potentially SCM-responding lymphocytes were obtained from donors having cancer, and treated in the same manner-some aliquots incubated with plasma containing SCM factor and others retained as controls and not incubated.
After incubation the cytotoxicity of the lymphocytes was tested in accordance with the method described in M. R. Potter and M. Moore, "Natural Cytotoxic Reactivity of Human Lymphocyte Subpopulations," Immunology 37, 187-194 (1979). In accordance with this published method cells of the K 562 human myeloid cell line labeled with ^51 Cr were used as target cells for the assay. The potentially SCM-responding lymphocytes were used as the effector cells. The ratio of target cells to effector cells was 1 to 20. […] The percent of cytotoxicity is determined as follows: [formula] where RS is the percent of ^51 Cr release in the sample, RC the percent of ^51 Cr release in the control and RT is the percent of ^51 Cr release in the presence of a detergent, Triton X-100. […] When the incubation was performed with potentially SCM-responding lymphocytes from cancer patients, the decrease in cytotoxicity was smaller, between 40 and 90%. […] The lower level of cytotoxicity present in cells from cancer patients was consistent with a decrease of such cytotoxicity caused by in vivo exposure to factors such as the cancer-associated SCM recognition factor.
The purified synthetic SCM factor molecule and peptides F1-F5, F7, and F8, as described above in Example 16, were investigated to determine their suppressive effect on the natural cytotoxicity of lymphocytes against cancer cells, using the human myeloid cell line K 562 as target as measured by the conventional ^51 Cr release method (Example 13).
In brief, the K 562 target cells grown in suspension in RPMI-FBS culture medium were washed and labeled for 3 hours at 37° C. with 100 μCi sodium [^51 Cr]chromate and then washed 4 times in RPMI growth medium. The effector lymphocytes used were isolated from heparinized peripheral blood of normal healthy donors using either appropriate density solutions to isolate the SCM-responding subpopulation of lymphocytes, as described above under "Isolation of SCM-responding Lymphocytes," or the conventional separation medium Histopaque 1077 for isolation of the total population of peripheral blood lymphocytes (PBL). The effector cell to target cell ratio used in these experiments was 40:1. Control samples contained target cells only and were used to determine background isotope release from the target cells. The test samples contained 0.2 mL aliquots of labeled target cells to which 0.2 mL of effector lymphocytes was added; the effector lymphocytes were either untreated or had been pretreated with either the entire synthetic SCM factor or any of the fragments designated F1 to F5, F7, or F8 for 2.5 hours at 37° C. The tests were carries out in triplicate. Cell suspensions were incubated for 18 hours at 37° C. in an atmosphere of 95% air and 5% CO2. Samples were then centrifuged for 10 minutes at 200 xg. From each test sample tube, a 0.2 mL aliquot of the supernatant was removed. Both the supernatant and the remaining cell pellet were counted in a Beckman gamma counter. The maximum possible isotope release was taken as the count obtained by adding the counts for the supernatant and cell pellets. The percentage of ^51 Cr release was determined for each of the triplicate samples; using the mean value of ^51 Cr release, the percentage of cytotoxicity was calculated according to the equation presented in Table 25.

[4] = cycloheximide 50 μg/10^6 cells, 16 hrs
[5] = experiment with untreated control 46.5 ± 1.5
[6] = experiment with untreated control 72.7 ± 1.2
[7] = experiment with untreated control 80.4 ± 1.0
[8] = experiment with untreated control 71.2 ± 1.5

Cc1c2oc3c(C)ccc(C(=O)N[C@@H]4C(=O)N[C@H](C(C)C)C(=O)N5CCC[C@H]5C(=O)N(C)CC(=O)N(C)[C@@H](C(C)C)C(=O)O[C@@H]4C)c3nc-2c(C(=O)N[C@@H]2C(=O)N[C@H](C(C)C)C(=O)N3CCC[C@H]3C(=O)N(C)CC(=O)N(C)[C@@H](C(C)C)C(=O)O[C@@H]2C)c(N)c1=O [Actinomycin D, actinomycin D] (I: T[dV]P[Sar][NMeV] / II: T[dV]P[Sar][NMeV]; ester I:1-I:C, II:1-II:C; linker I:N-II:N via Actinocin(9to1))
induction of response to synthetic SCM factor in presence of protein synthesis inhibitor [1]: no response to synthetic SCM factor was induced

C[C@@H]1C[C@@H]([C@H](O)CC2CC(=O)NC(=O)C2)C(=O)[C@@H](C)C1 [Cycloheximide, cycloheximide]
Corrected A405 As % of Control (MCF7 breast cancer cells; cycloheximide 20 μg/10^6 cells, 3 hrs): 91.2 % of Control | Corrected A405 (SCM factor synthesis) (MCF7 breast cancer cells; cycloheximide 20 μg/10^6 cells, 3 hrs, control 2.0716): 1.8893 | Corrected A405 As % of Control (MCF7 breast cancer cells; [4]): 74.7 % of Control | Corrected A405 (SCM factor synthesis) (MCF7 breast cancer cells; cycloheximide 50 μg/10^6 cells, 16 hrs, control 0.9654): 0.7217 | decrease of concentration of SCM factor associated with the cells (MCF7 breast cancer cells; cycloheximide treatment): 25.3% | induction of response to synthetic SCM factor in presence of protein synthesis inhibitor [1]: no response to synthetic SCM factor was induced | Corrected A405 As % of Control (T1080 fibrosarcoma cells; [4]): 66.0 % of Control | Corrected A405 (SCM factor synthesis) (T1080 fibrosarcoma cells; cycloheximide 50 μg/10^6 cells, 16 hrs, control 1.5060): 0.9940 | decrease of concentration of SCM factor associated with the cells (T1080 fibrosarcoma cells; cycloheximide treatment): 34%

O=C1O[C@H]([C@@H](O)CO)C(O)=C1O [L-ascorbic acid]
Corrected ELISA A405 (SCM factor synthesis) (MCF7 breast cancer cells; 1 × 10^-3 M, pH 7.1, 16 hrs at 37° C., 7×10^6 cells, control 1.7448): 0.9788 | less SCM factor produced than untreated control cells (MCF7 breast cancer cells; 10^-3 molar, 16-hour incubation): 43.9% | activity at 1000 µM (MCF7 breast cancer cells; Homo sapiens, MCF7, 1 × 10^-3 M, pH 7.1, 16 hrs at 37° C., read-out: Corrected ELISA A405 as % of Control): 56.1%

F-S-W-G-A-E-G-Q-R (FSWGAEGQR) [EAE peptide, experimental allergic encephalitogenic peptide]
SCM factor activity [2]: has no SCM factor activity; also recorded: completely devoid of SCM activity

F-W-G-A-E-G-Q-R (FWGAEGQR)
SCM factor activity [2]: with SCM-factor activity

FLMIDQNTK [F4, F-L-M-I-D-Q-N-T-K]
Percent Cytotoxicity [3, 5]: 48.6 ± 1.3% | Percent Cytotoxicity [3, 6]: 76.2 ± 1.3% | Percent Cytotoxicity [3, 7]: 81.0 ± 1.5%

FLMIDQNTKVPLFMGK [F7]
Percent Cytotoxicity [3, 8]: 72.7 ± 1.0%

FNKPFVFLMIDQNTK [F3, F-N-K-P-F-V-F-L-M-I-D-Q-N-T-K]
Percent Cytotoxicity [3, 6]: 74.5 ± 1.5% | Percent Cytotoxicity [3, 7]: 80.5 ± 1.0%

FNKPFVFLMIDQNTKVPLFMGK [F2, FNKPFVFLMIDQNTKVPLFMGK]
Percent Cytotoxicity [3, 5]: 2.4 ± 0.2% | Percent Cytotoxicity [3, 6]: 14.9 ± 1.5% | Percent Cytotoxicity [3, 7]: 2.6 ± 1.7%

MIPPEVKFNKPFVF [F5, M-I-P-P-E-V-K-F-N-K-P-F-V-F]
Percent Cytotoxicity [3, 6]: 72.7 ± 1.3% | Percent Cytotoxicity [3, 7]: 79.8 ± 0.9%

MIPPEVKFNKPFVFLMDQNTK [F1, MIPPEVKFNKPFVFLMDQNTK]
Percent Cytotoxicity [3, 6]: 78.5 ± 1.0% | Percent Cytotoxicity [3, 7]: 81.0 ± 1.0%

MIPPEVKFNKPFVFLMIDQNTKVPLFMGK [Synthetic SCM Factor, MIPPEVKFNKPFVFLMIDQNTKVPLFMGK]
dose resulting in a 50% decrease in cytotoxicity [3]: 11.5 femtomoles per lymphocyte | quantity required for a 50% decrease of the cytotoxic effect [3]: 11.5 femtomoles | Percent Cytotoxicity: Treated & Washed Lymphocytes ([3]; PBL of healthy donors): 3.0 ± 0.8% | Percent Cytotoxicity [3, 5]: 0.1 ± 0.8% | Percent Cytotoxicity [3, 6]: 3.2 ± 0.1% | Percent Cytotoxicity [3, 7]: 3.1 ± 0.8% | Percent Cytotoxicity: Treated & Washed Lymphocytes ([3]; SCM-R lymphocytes of healthy donors): 0.1 ± 0.9%

VPLFMGK [F8]
Percent Cytotoxicity ([3]; experiment with untreated control 31.0 ± 2.0): 33.0 ± 1.8% | Percent Cytotoxicity [3, 8]: 71.7 ± 1.2%
